Data reported in US9422292B2, “Bromodomain inhibitors and uses thereof” (Constellation Pharmaceuticals, Inc., priority 2011, dated 2016).
pIC50: −log10 of the molar value. Where two headings read alike, the source gives them in different places.

How the values were obtained:
[1] = tested on: IL-6 secretion in THP-1 cells; assay: Cell-based IL-6 quantification assay (ELISA, Mesoscale) in LPS-treated THP-1 cells; conditions: Homo sapiens, LPS 4 μg/mL, 16 h, ELISA value/CellTiter-Glo ratio
Procedure: C. Cell-Based IL-6 Quantification Assay (ELISA, Mesoscale Assay):
100,000 THP-1 cells were seeded in RPMI1640-10% FBS in 96-well plates. LPS (E. Coli Invitrogen) in RPMI−10% FBS at a final concentration of 4 μg/mL was added to the wells and the cells are then incubated in the presence of various concentrations of compounds for 16 h. Plates are spun ([…], 5 min), an aliquot of 25 uL supernatant is transferred in to an ELISA plate (Mesoscale technology, MSD) and the detection of IL-6 is performed using manufacturer's instructions. The amount of cells in each well is assessed using CellTiter-Glo® (Promega). The ratio of ELISA value/CellTiter-Glo value is used to calculate the percent of inhibition of IL-6 secretion.

[2] = tested on: MYC mRNA in MV4:11 (AML) cells; assay: cMyc RNA quantification assay (QuantiGene) in MV4:11 cells; assay type: cell-based; conditions: Homo sapiens, 4 h, QuantiGene 2.0
Procedure: B. cMyc RNA Quantification Assay (QuantiGene® Assay):
MV4:11 (AML) cells were seeded in a 96-well plate and incubated in the presence of various concentrations of compounds for 4 h. Relative mRNA levels were quantitated by using QuantiGene 2.0 assay (Affymetrix) according to the manufacturer's recommendation. Signals were detected by using an Envision plate reader (Perkin-Elmer). Biological duplicates were averaged and normalized to vehicle (DMSO) control to calculate percent MYC mRNA levels.

[3] = biological target: T1, BRD4 (BD1) (Homo sapiens, UniProt O60885); assay: BRD4 AlphaLisa binding assay
T1 construct: His; made in house
Procedure: A. IC50 Measurements for Inhibitors Using BRD4 AlphaLisa Binding Assay.
Specifically, in a 384 well ProxiPlate BRD4 (BD1) (30 nM final) was combined with peptide (200 nM final) in 40 mM HEPES (pH 7.0), 40 mM NaCl, 1 mM DTT, 0.01% (w/v) BSA, and 0.008% (w/v) Brij-35 either in the presence of DMSO (final 1.2% DMSO) or compound dilution series in DMSO. After 20 minute incubation at room temperature Alpha streptavidin donor beads and AlphaLisa anti-Flag acceptor beads were added to a final concentration of 10 ug/mL each. After three hours equilibration plates were read on an Envision instrument and IC50s calculated using a four parameter non-linear curve fit.

[4] = BRD4 (BD1) 30 nM, biotinylated H4-tetraacetyl peptide 200 nM, read-out: BRD4 AlphaLisa

pIC50 [1] | pIC50 [2] | pIC50 [3, 4] | SMILES | pIC50 [3]
> 7.00 | 6.00 to 7.00 | > 7.00 | Cc1nnc2n1-c1ccc(-c3ccc(N)nc3)cc1N(c1ccc(Cl)cc1)CC2 [Compound 15, 5-(6-(4-chlorophenyl)-1-methyl-5,6-dihydro-4H-benzo[b][1,2,4]triazolo[4,3-d][1,4]diazepin-8-yl)pyridin-2-amine] | 
6.00 to 7.00 | 6.00 to 7.00 | 6.00 to 7.00 | Cc1nnc2n1-c1ccc(-c3ccc(N)nc3)cc1N(c1ccc(C#N)cc1)CC2 [Compound 16, 4H-[1,2,4]triazolo[4,3-a][1,5]benzodiazepine, 5,6-dihydro-1-methyl-8-(6-aminopyridin-3-yl)-6-(4-cyano-phenyl)] | 
< 6.00 | 5.00 to 6.00 | 5.00 to 6.00 | Cc1nnc2n1-c1c(F)cccc1N(c1ccc(Cl)cc1)CC2 [Compound 17, 6-(4-chlorophenyl)−10-fluoro-1-methyl-5,6-dihydro-4H-benzo[b][1,2,4]triazolo[4,3-d][1,4]diazepine] | 
< 6.00 | 5.00 to 6.00 | 6.00 to 7.00 | Cc1nnc2n1-c1ccccc1N(c1ccc(Cl)cc1)C(C)C2 (stereo not drawn) [Compound 18, 6-(4-chlorophenyl)-1,5-dimethyl-5,6-dihydro-4H-benzo[b][1,2,4]triazolo[4,3-d][1,4]diazepine] | 
> 7.00 | 6.00 to 7.00 | > 7.00 | Cc1nnc2n1-c1ccc(-c3ccc(N)nc3)cc1N(c1ccc(C(F)(F)F)cc1)CC2 [Compound 19, 4H-[1,2,4]triazolo[4,3-a][1,5]benzodiazepine,5,6-dihydro-1-methyl-8-(6-amino-pyridin-3-yl)-6-(4-trifluoromethyl-phenyl)] | 
6.00 to 7.00 | 6.00 to 7.00 | > 7.00 | Cc1nnc2n1-c1ccc(-c3ccc(C(=O)O)cc3)cc1N(c1ccc(Cl)cc1)CC2 [Compound 20, 4H-[1,2,4]triazolo[4,3-a][1,5]benzodiazepine,5,6-dihydro-1-methyl-8-(4-carboxy-phenyl)-6-(4-chloro-phenyl)] | 
6.00 to 7.00 | 5.00 to 6.00 | 6.00 to 7.00 | Cc1nnc2n1-c1ccc(-c3ncccn3)cc1N(c1ccc(Cl)cc1)CC2 [Compound 21, 6-(4-chlorophenyl)-1-methyl-8-(pyrimidin-2-yl)-5,6-dihydro-4H-benzo[b][1,2,4]triazolo[4,3-d][1,4]diazepine] | 
5.00 to 6.00 | 6.00 to 7.00 | < 5.00 | Cc1nnc2n1-c1ccccc1N(c1ccc(Cl)cc1)C(C)(C)C2 [Compound 22, 6-(4-chlorophenyl)-1,5,5-trimethyl-5,6-dihydro-4H-benzo[b][1,2,4]triazolo[4,3-d][1,4]diazepine] | 
> 7.00 | > 7.00 | > 7.00 | Cc1nnc2n1-c1ccc(-c3ccc(N)nc3)cc1N(c1ccc(Cl)cc1)CC2C (stereo not drawn) [Compound 23, 4H-[1,2,4]triazolo[4,3-a][1,5]benzodiazepine,5,6-dihydro-1,4-dimethyl-8-(6-aminopyridin-3-yl)-6-(4-chloro-phenyl)] | 
< 6.00 | 5.00 to 6.00 | > 7.00 | Cc1nnc2n1-c1ccc(-c3ncc(C(=O)O)cn3)cc1N(c1ccc(Cl)cc1)CC2 [Compound 24, 4H-[1,2,4]triazolo[4,3-a][1,5]benzodiazepine, 5,6-dihydro-1-methyl-8-(5-(carboxy)pyrimidin-2-yl)-6-(4-chloro-phenyl)] | 
6.00 to 7.00 | > 7.00 | > 7.00 | Cc1nnc2n1-c1ccc(-c3cnc(N)nc3)cc1N(c1ccc(Cl)cc1)CC2C (stereo not drawn) [Compound 25] | 
> 7.00 | > 7.00 | > 7.00 | Cc1nnc2n1-c1ccc(-c3ccc(N)nc3)cc1N(c1ccc(Cl)cc1)C[C@H]2C [Compound 26, (R)-4H-[1,2,4]triazolo[4,3-a][1,5]benzodiazepine, 5,6-dihydro-1,4-dimethyl-8-(6-aminopyridin-3-yl)-6-(4-chloro-phenyl)] | 
6.00 to 7.00 | 5.00 to 6.00 | 6.00 to 7.00 | Cc1nnc2n1-c1ccc(-c3ccc(N)nc3)cc1N(c1ccc(Cl)cc1)C[C@@H]2C [Compound 27, (S)-4H-[1,2,4]triazolo[4,3-a][1,5]benzodiazepine, 5,6-dihydro-1,4-dimethyl-8-(6-aminopyridin-3-yl)-6-(4-chloro-phenyl)] | 
5.00 to 6.00 | 5.00 to 6.00 | 5.00 to 6.00 | Cc1ccc(-c2ccc3c(c2)N(c2ccc(Cl)cc2)C[C@H](C)c2nnc(C)n2-3)cn1 [Compound 28, (S)-4H-[1,2,4]triazolo[4,3-a][1,5]benzodiazepine, 5,6-dihydro-1,4-dimethyl-8-(6-methylpyridin-3-yl)-6-(4-chloro-phenyl)] | 
> 7.00 | > 7.00 | > 7.00 | Cc1ccc(-c2ccc3c(c2)N(c2ccc(Cl)cc2)C[C@@H](C)c2nnc(C)n2-3)cn1 [Compound 29, (R)-4H-[1,2,4]triazolo[4,3-a][1,5]benzodiazepine, 5,6-dihydro-1,4-dimethyl-8-(6-methylpyridin-3-yl)-6-(4-chloro-phenyl)] | 
< 6.00 | 5.00 to 6.00 | 5.00 to 6.00 | Cc1nnc2n1-c1ccc(Br)cc1N(c1ccc(Cl)cc1)C[C@@H]2C [Compound 37, (S)-4H-[1,2,4]triazolo[4,3-a][1,5]benzodiazepine, 5,6-dihydro-1,4-dimethyl-8-bromo-6-(4-chloro-phenyl)] | 
6.00 to 7.00 | 6.00 to 7.00 | 6.00 to 7.00 | Cc1nnc2n1-c1ccc(Br)cc1N(c1ccc(Cl)cc1)C[C@H]2C [Compound 38, (R)-4H-[1,2,4]triazolo[4,3-a][1,5]benzodiazepine,5,6-dihydro-1,4-dimethyl-8-bromo-6-(4-chloro-phenyl)] | 
> 7.00 | > 7.00 | > 7.00 | Cc1nnc2n1-c1ccc(-c3cnc(N)nc3)cc1N(c1ccc(Cl)cc1)C[C@H]2C [Compound 39, (R)-4H-[1,2,4]triazolo[4,3-a][1,5]benzodiazepine,5,6-dihydro-1,4-dimethyl-8-(2-aminopyrimidin-5-yl)-6-(4-chloro-phenyl)] | 
6.00 to 7.00 | > 7.00 | > 7.00 | Cc1nnc2n1-c1ccc(C(N)=O)cc1N(c1ccc(Cl)cc1)C[C@H]2C [Compound 41, 4-R-4H-[1,2,4]Triazolo[4,3-a][1,5]benzodiazepine,5,6-dihydro-1,4-dimethyl-8-carbamoyl-6-(4-chloro-phenyl)] | 
< 6.00 | 5.00 to 6.00 | 6.00 to 7.00 | Cc1nnc2n1-c1ccc(-c3cnn(C)c3)cc1N(c1ccc(Cl)cc1)C[C@@H]2C [Compound 42, (S)-4H-[1,2,4]triazolo[4,3-a][1,5]benzodiazepine, 5,6-dihydro-1,4-dimethyl-8-(1-methyl-1H-pyrazol-4-yl)-6-(4-chloro-phenyl)] | 
> 7.00 | > 7.00 | > 7.00 | Cc1nnc2n1-c1ccc(-c3cnn(C)c3)cc1N(c1ccc(Cl)cc1)C[C@H]2C [Compound 43, (R)-(4H-[1,2,4]triazolo[4,3-a][1,5]benzodiazepine,5,6-dihydro-1,4-dimethyl-8-(1-methyl-1H-pyrazol-4-yl)-6-(4-chloro-phenyl))] | 
> 7.00 | > 7.00 | > 7.00 | Cc1nnc2n1-c1ccc(-c3cnn(C)c3)cc1N(c1ccc(C#N)cc1)C[C@H]2C [Compound 44, (R)-4H-[1,2,4]triazolo[4,3-a][1,5]benzodiazepine, 5,6-dihydro-1,4-dimethyl-8-(1-methyl-1H-pyrazol-4-yl)-6-(4-cyano-phenyl)] | 
6.00 to 7.00 | 6.00 to 7.00 | > 7.00 | Cc1nnc2n1-c1ccc(-c3cnn(CC(N)=O)c3)cc1N(c1ccc(Cl)cc1)C[C@H]2C [Compound 46, 4H-[1,2,4]triazolo[4,3-a][1,5]benzodiazepine,5,6-dihydro-(4R)-1,4-dimethyl-8-(1-(2-amino-2-oxoethyl)-1H-pyrazol-4-yl)-6-(4-chloro-phenyl)] | 
6.00 to 7.00 | 6.00 to 7.00 | 6.00 to 7.00 | Cc1nnc2n1-c1ccc(C(=O)NCCO)cc1N(c1ccc(Cl)cc1)C[C@H]2C [Compound 47, 4-R-4H-[1,2,4]triazolo[4,3-a][1,5]benzodiazepine,5,6-dihydro-1,4-dimethyl-8-(2-hydroxyethylcarbamoyl)-6-(4-chloro-phenyl)] | 

SMILES | pIC50 [1] | pIC50 [2] | pIC50 [3, 4] | pIC50 [3]
Cc1nnc2n1-c1ccccc1N(c1ccc(Cl)cc1)CC2(C)C [Compound 3, 6-(4-chlorophenyl)-1,4,4-trimethyl-5,6-dihydro-4H-benzo[b][1,2,4]triazolo[4,3-d][1,4]diazepine] | 6.00 to 7.00 | 5.00 to 6.00 |  | 6.00 to 7.00
